Test results reported in US20260144769A1, “4-PHENYLBUTYRATE RESTORED GABA UPTAKE AND REDUCED SEIZURES IN SLC6A1 VARIANT-MEDIATED DISORDERS” (Vanderbilt University, priority 2022, published 2026).

Molecular target: T1, wildtype GAT-1 (Rattus norvegicus, UniProt P23978)
T1 construct: The coding region of rGAT-1 was inserted into pEYFP-C1 (Clontech, Palo Alto, CA); expressed in transfected cells; host or cells: HEK293T cells (A1); astrocytes from corrected human iPSCs (A21)
Assay: 3H GABA uptake, HEK293T cells expressing wildtype GAT-1^YFP
Assay type: cell-based
Settings: for GABA uptake activity vs. wildtype 0: HEK293T, wildtype GAT-1^YFP, normalized to DMSO treated
Description: GABA uptake activity was measured by the high-throughput 3H radio-labeling GABA uptake on a liquid scintillator with QuantaSmart. […] HEK293T cells were transfected with the wildtype or the mutant GAT-1^YFP cDNAs alone for 48 hr. […] HEK293T cells were transfected with the wildtype GAT-1^YFP alone or in mixture of the wildtype or the mutant cDNAs for 48 hr. In the mixed condition, the ratio of the wildtype GAT-1 with pcDNA or the mutant cDNAs are 1:1 with the total cDNA amount of 0.5 μg. […] Both wt and the mutant were normalized to its own DMSO treated conditions. 966 stands for the wildtype treated with CI-966 (50 μM) while 711 stands for NNC-711 (35 μM). (N=4-7 different transfections. In FIG. 4A and FIG. 4B, *P<0.05, **P<0.01, ***p<0.001 vs. wt 0. In FIG. C and FIG. 4D, *P<0.05, **P<0.01, ***p<0.001 vs. its own DMSO treated. In FIG. 4C, ns stands for no significance. One-way analysis of variance (ANOVA) and Newman-Keuls test. Values were expressed as mean±S.E.M.
The plasmid cDNA encoding enhanced yellow fluorescent protein (EYFP)-tagged rat GAT-1 has been previously described. The coding region of rGAT-1 was inserted into pEYFP-C1 (Clontech, Palo Alto, CA). QuikChange Site-directed Mutagenesis kit was utilized to introduce the GAT-1 variants into a wildtype GAT-1 plasmid. The product was then amplified via polymerase chain reaction, transformed using DH5a competent cells, and plated. A clone was chosen and grown overnight. All the GAT-1 variants were confirmed by DNA sequencing. Both the wildtype and the variant cDNAs were prepared with Qiagen Maxiprep kit.
Human embryonic kidney cells were cultured as monolayers in 100 mm^2 dishes. Cells were cultured in Dulbecco's Modified Eagle's Medium supplemented with 10% FBS and 1% penicillin/streptomycin in 37° C. in 5% CO2/95% air. Cells were maintained in culture medium until appropriate confluency for experimentation.
Briefly, cells were cultured in […] dishes for 3 days before the GABA uptake experiment in DMEM with 10% fetal bovine serum and 1% penicillin/streptomycin. The cells were then transfected with equal amounts of the wildtype or the mutant GAT-1 cDNAs (1 μg) for each condition at 24 hrs or 48 hrs after plating. GABA uptake assay was carried out 48 hrs after transfection. The cells were incubated with preincubation solution for 15 min and then incubated with preincubation solution containing 1 μci/mL 3H GABA and 10 μM unlabeled GABA for 30 min at room temperature. After washing, the cells were lysed with 0.25 N NaOH for 1 hr. Glacial acetic acid was added, and lysates were then determined on a liquid scintillator with QuantaSmart. The flux of GABA (pmol/μg/min) was averaged with at least triplets for each condition at each transfection. The average counting was taken as n=1. […]

O=C(O)CCCc1ccccc1 [PBA, 4-phenylbutyric acid]
GABA uptake activity vs. wildtype 0 (PBA 4 mM as printed): 1.24±0.09
GABA uptake activity vs. wildtype 0 (PBA for 24 hrs): 1.24±0.05
GABA uptake activity, concentration and time dependence (PBA 0 to 4 mM, 0 to 48 hrs): concentration and time dependently increased
cell loss (cells treated with PBA at 4 mM and/or 48 hrs): occasional cell loss
